Results: patent US5567692A, “9-[(substituted glycyl) amido)]-6-demethyl-6-deoxytetracyclines” (priority 1995, dated 1996)
Values after ≈ are worked out from the molar mass of the structure shown. Where two headings read alike, the source gives them in different places.

What was measured:
[1] = tested on: E. coli J3272 Tet sens; assay: MIC, agar dilution; format: cell-based; details: Escherichia coli, J3272TETSENS, 18 h
[2] = tested on: E. coli J3272 Tet C; assay: microbe, parasite or virus in culture; format: cell-based; details: Escherichia coli, J3272TETC, 18 h
[3] = tested on: E. coli UBMS 90-5; assay: microbe, parasite or virus in culture; format: cell-based; details: Escherichia coli, UBMS905, 18 h, E. coli UBMS 90-5; read-out: MIC
[4] = tested on: S. marcescens FPOR 8733; assay: MIC, agar dilution; format: cell-based; details: Serratia marcescens, FPOR8733, 18 h
[5] = tested on: Ps. aeruginosa ATCC 27853; assay: MIC, agar dilution; format: cell-based; details: Pseudomonas aeruginosa, ATCC27853, 18 h
[6] = tested on: Enterococcus 12201; assay: MIC, agar dilution; format: cell-based; details: Enterococcus, 12201, 18 h, Enterococcus 12201; read-out: MIC
[7] = tested on: E. faecalis ATCC 29212; assay: MIC, agar dilution; format: cell-based; details: Enterococcus faecalis, ATCC29212, 18 h
[8] = tested on: Staphylococcus aureus strain Smith (tetracycline sensitive); assay: Acute lethal infection in mice, S. aureus Smith; format: in vivo; details: Staphylococcus aureus, 168 h, mice, S. aureus Smith (Sens), 7 day survival, read-out: ED50
[9] = tested on: Staphylococcus aureus, (methicillin-susceptible); assay: MIC range, recent clinical and veterinary isolates; format: cell-based; details: 18 h; Staphylococcus aureus (methicillin-susceptible), [15] isolates; read-out: MIC Range
[10] = tested on: Staphylococcus Coagulase-negative, (methicillin-resistant); assay: MIC range, recent clinical and veterinary isolates; format: cell-based; details: 18 h, [16] isolates
[11] = tested on: Staphylococcus Coagulase-negative, (methicillin-susceptible); assay: MIC range, recent clinical and veterinary isolates; format: cell-based; details: 18 h, [14] isolates
[12] = tested on: Enterococcus faecalis; assay: MIC range, recent clinical and veterinary isolates; format: cell-based; details: 18 h, [10] isolates, read-out: MIC Range
[13] = tested on: Enterococcus faecium; assay: MIC range, recent clinical and veterinary isolates; format: cell-based; details: 18 h, [10] isolates, read-out: MIC Range
[14] = tested on: Enterococcus spp, (Vancomycin-resistant); assay: MIC range, recent clinical and veterinary isolates; format: cell-based; details: 18 h, [8] isolates
[15] = tested on: Streptococcus pyogenes; assay: MIC range, recent clinical and veterinary isolates; format: cell-based; details: 18 h, [10] isolates, read-out: MIC Range
[16] = tested on: Streptococcus agalactiae; assay: MIC range, recent clinical and veterinary isolates; format: cell-based; details: 18 h, [10] isolates, read-out: MIC Range
[17] = tested on: Streptococcus pneumoniae; assay: MIC range, recent clinical and veterinary isolates; format: cell-based; details: 18 h, [10] isolates, read-out: MIC Range
[18] = tested on: Listeria monocytogenes; assay: MIC range, recent clinical and veterinary isolates; format: cell-based; details: 18 h, [8] isolates
[19] = tested on: Escherichia coli; assay: MIC range, recent clinical and veterinary isolates; format: cell-based; details: 18 h, [30] isolates, read-out: MIC Range
[20] = tested on: Escherichia coli (Veterinary); assay: MIC range, recent clinical and veterinary isolates; format: cell-based; details: 18 h, [15] isolates
[21] = tested on: Shigella spp.; assay: MIC range, recent clinical and veterinary isolates; format: cell-based; details: 18 h, [14] isolates
[22] = tested on: Klebsiella pneumoniae; assay: MIC range, recent clinical and veterinary isolates; format: cell-based; details: 18 h, [10] isolates
[23] = tested on: Klebsiella oxytoca; assay: MIC range, recent clinical and veterinary isolates; format: cell-based; details: 18 h, [10] isolates, read-out: MIC Range
[24] = tested on: Citrobacter freundii; assay: MIC range, recent clinical and veterinary isolates; format: cell-based; details: [10] isolates
[25] = tested on: Citrobacter diversus; assay: MIC range, recent clinical and veterinary isolates; format: cell-based; details: Citrobacter koseri, 18 h; Citrobacter diversus, [10] isolates; read-out: MIC Range
[26] = tested on: Salmonella spp.; assay: MIC range, recent clinical and veterinary isolates; format: cell-based; details: 18 h, [11] isolates
[27] = tested on: Serratia marcescens; assay: MIC range, recent clinical and veterinary isolates; format: cell-based; details: 18 h, read-out: MIC Range
[28] = tested on: Enterobacter cloacae; assay: MIC range, recent clinical and veterinary isolates; format: cell-based; details: 18 h, [10] isolates, read-out: MIC Range
[29] = tested on: Enterobacter aerogenes; assay: MIC range, recent clinical and veterinary isolates; format: cell-based; details: Klebsiella aerogenes, 18 h; Enterobacter aerogenes, [10] isolates; read-out: MIC Range
[30] = tested on: Proteus mirabilis; assay: MIC range, recent clinical and veterinary isolates; format: cell-based; details: 18 h, [26] isolates, read-out: MIC Range
[31] = tested on: Proteus vulgaris; assay: MIC range, recent clinical and veterinary isolates; format: cell-based; details: 18 h, read-out: MIC Range
[32] = tested on: Morganella morganii; assay: MIC range, recent clinical and veterinary isolates; format: cell-based; details: 18 h, [16] isolates
[33] = tested on: Pseudomonas aeruginosa; assay: MIC range, recent clinical and veterinary isolates; format: cell-based; details: 18 h, [10] isolates, read-out: MIC Range
[34] = tested on: Xanthamonas maltophilia; assay: MIC range, recent clinical and veterinary isolates; format: cell-based; details: 18 h; Xanthamonas maltophilia, [10] isolates; read-out: MIC Range
[35] = tested on: Moraxella catarrhalis; assay: MIC range, recent clinical and veterinary isolates; format: cell-based; details: 18 h, [18] isolates, read-out: MIC Range
[36] = tested on: Neisseria gonorrhoeae; assay: MIC range, recent clinical and veterinary isolates; format: cell-based; details: 18 h, [14] isolates
[37] = tested on: Haemophilus influenzae; assay: MIC range, recent clinical and veterinary isolates; format: cell-based; details: 18 h, [15] isolates
[38] = tested on: Pasturella multocida (Veterinary); assay: MIC range, recent clinical and veterinary isolates; format: cell-based; details: 18 h, [17] isolates
[39] = tested on: Bordetella bronchiseptica (Veterinary); assay: MIC range, recent clinical and veterinary isolates; format: cell-based; details: 18 h; Bordetella bronchiseptica (Veterinary), [10] isolates; read-out: MIC Range
[40] = tested on: Bacteroides fragilis; assay: MIC range, recent clinical and veterinary isolates; format: cell-based; details: [11] isolates
[41] = tested on: Bacteroides fragilis group; assay: MIC range, recent clinical and veterinary isolates; format: cell-based; details: 18 h; Bacteroides fragilis group, [10] isolates; read-out: MIC Range
[42] = tested on: Bacteroides spp.; assay: MIC range, recent clinical and veterinary isolates; format: cell-based; details: 18 h; Bacteroides spp., [9] isolates; read-out: MIC Range
[43] = tested on: Clostridium difficile; assay: MIC range, recent clinical and veterinary isolates; format: cell-based; details: Clostridium difficile, [12] isolates
[44] = tested on: Anaerobic Gram(+)Cocci; assay: MIC range, recent clinical and veterinary isolates; format: cell-based; details: 18 h, read-out: MIC Range
[45] = tested on: Escherichia coli UBMS 90-4 (Tet M); assay: Acute lethal infection in mice, E. coli UBMS 90-4; details: in Mus musculus, iv, 168 h

CN(C)c1ccc(O)c2c1C[C@H]1C[C@H]3[C@H](N(C)C)C(O)=C(C(N)=O)C(=O)[C@@]3(O)C(O)=C1C2=O [U, Minocycline, reference compound] showed an MIC [1] of 1 µg/mL (≈ 2.19 µM), an MIC [2] of 1 µg/mL (≈ 2.19 µM) and an MIC [3] of 1 µg/mL (≈ 2.19 µM). For the same molecule, the MIC [4] was 4 µg/mL (≈ 8.74 µM), the MIC [5] was 8 µg/mL (≈ 17.5 µM) and the MIC [6] was 8 µg/mL (≈ 17.5 µM). The MIC [7] was 2 µg/mL (≈ 4.37 µM), the ED50 ([8]; iv, Intraveneous) was 0.37 mg/kg and the ED50 ([8]; po, Oral) was 0.74 mg/kg. The MIC [9] was 0.03 to 0.12 µg/mL (≈ 0.0656 to 0.262 µM), the MIC [10] was 0.03 to 1 µg/mL (≈ 0.0656 to 2.19 µM) and the MIC [11] was 0.015 to 0.25 µg/mL (≈ 0.0328 to 0.546 µM). For the same molecule, the MIC [12] was 0.03 to 16 µg/mL (≈ 0.0656 to 35 µM), the MIC [13] was 0.03 to 16 µg/mL (≈ 0.0656 to 35 µM) and the MIC [14] was 0.03 to 16 µg/mL (≈ 0.0656 to 35 µM). For the same molecule, the MIC [15] was 0.03 to 2 µg/mL (≈ 0.0656 to 4.37 µM), the MIC [16] was 0.12 to 16 µg/mL (≈ 0.262 to 35 µM) and the MIC [17] was 0.06 to 0.5 µg/mL (≈ 0.131 to 1.09 µM). The MIC [18] was 0.015 to 0.03 µg/mL (≈ 0.0328 to 0.0656 µM), the MIC [19] was 0.25 to 32 µg/mL (≈ 0.546 to 69.9 µM) and the MIC [20] was 1 to 16 µg/mL (≈ 2.19 to 35 µM). For the same molecule, the MIC [21] was 0.25 to 8 µg/mL (≈ 0.546 to 17.5 µM), the MIC [22] was 0.5 to 8 µg/mL (≈ 1.09 to 17.5 µM) and the MIC [23] was 0.5 to 4 µg/mL (≈ 1.09 to 8.74 µM). For the same molecule, the “MIC Range” value [24] was 0.03 to 32 µg/mL, the MIC [25] was 0.25 to 4 µg/mL (≈ 0.546 to 8.74 µM) and the MIC [26] was 0.5 to 16 µg/mL (≈ 1.09 to 35 µM). The MIC [27] was 1 to 8 µg/mL (≈ 2.19 to 17.5 µM), the MIC [28] was 0.25 to 4 µg/mL (≈ 0.546 to 8.74 µM) and the MIC [29] was 0.5 to 1 µg/mL (≈ 1.09 to 2.19 µM). It also gave an MIC [30] of 1 to 32 µg/mL (≈ 2.19 to 69.9 µM), an MIC [31] of 0.5 to 16 µg/mL (≈ 1.09 to 35 µM) and an MIC [32] of 0.25 to 32 µg/mL (≈ 0.546 to 69.9 µM). The MIC [33] was 1 to 16 µg/mL (≈ 2.19 to 35 µM), the MIC [34] was 0.12 to 1 µg/mL (≈ 0.262 to 2.19 µM) and the MIC [35] was 0.03 to 0.12 µg/mL (≈ 0.0656 to 0.262 µM). For the same molecule, the MIC [36] was 0.5 to 64 µg/mL (≈ 1.09 to 140 µM), the MIC [37] was 0.5 to 2 µg/mL (≈ 1.09 to 4.37 µM) and the MIC [38] was 0.015 to 4 µg/mL (≈ 0.0328 to 8.74 µM). For the same molecule, the MIC [39] was 0.06 to 0.12 µg/mL (≈ 0.131 to 0.262 µM), the “MIC Range” value [40] was under 8 to 16000 ng/mL and the MIC [41] was 0.008 to 4 µg/mL (≈ 0.0175 to 8.74 µM). For the same molecule, the MIC [42] was 0.03 to 16 µg/mL (≈ 0.0656 to 35 µM), the “MIC Range” value [43] was 0.015 to 16 µg/mL and the MIC [44] was 0.05 to 8 µg/mL (≈ 0.109 to 17.5 µM). It also gave an ED50 [45] of over 32 mg/kg.
